The source of these data is PubChem BioAssay (NCI).

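Tested at 5 concentrations; 48 h exposure; 96-well plates; endpoints linearly interpolated, else capped at highest concentration. GI50 is the concentration that inhibits growth by half. At the TGI there is no net growth.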

Some test systems named below: KM20L2 colon; XF 498 CNS; HOP-18 NSCLC; MDA-MB-435; MDA-MB-231 breast; MDA-N; RXF-631 renal.
Experiment in all cases: NCI anticancer screen, dose series, 48 h

`NC1(CCCCCCCCCCC(=O)O)CNCCNCCNCCNC1` had a TGI with KM20L2 colon of over 100 µM.
Turning to `C1CN2N3CCCC23C1` (stereo not drawn), the TGI in the test on XF 498 CNS, in the test on KM20L2 colon and in the test with HOP-18 NSCLC was over 100 µM throughout.
In the case of `CC[n+]1ccc2c(c1)C(=O)c1nccc3c1c-2nc1ccccc13`, in the test on MDA-MB-435, the GI50 is 2.34 µM and the TGI was found to be 7.24 µM. For the same molecule, in the test with MDA-MB-231 breast, the GI50 was 2.17 µM and the TGI worked out at 14 µM.
With `CCCCCCCCCCCCOC1C(CNCC2OC3OC(C)(C)OC3C2NC(=O)Nc2ccc(C(=O)OCC)cc2)OC2OC(C)(C)OC21` (stereo not drawn), the values for the GI50 in the test with MDA-MB-435 and with MDA-MB-231 breast were 1.9 µM and 1.77 µM, respectively. The TGI was found to be 3.8 µM with MDA-MB-435 and 3.33 µM in the test on MDA-MB-231 breast.
For `NNC(=O)c1cnn(-c2ccnc3c(C(F)(F)F)cccc23)c1N`, in the test on MDA-MB-435, the GI50 was over 100 µM and the TGI was over 100 µM. In the test with MDA-MB-231 breast, the GI50 is over 100 µM and the TGI is over 100 µM.
Take `CC(=O)OCCc1cccnc1/C=N/O`: the TGI with XF 498 CNS, in the test on KM20L2 colon and with HOP-18 NSCLC was over 100 µM throughout.
`Cc1c(Cl)cccc1Nc1ncccc1C(=O)O`: in the test on MDA-MB-435, the GI50 is 82.9 µM and the TGI is over 100 µM. Besides, in the test on MDA-MB-231 breast, the GI50 was 92.3 µM and the TGI was over 100 µM.
As for `CN(C)c1ccc(/C=C2\C[N+](C)(C)C/C(=C\c3ccc(N(C)C)cc3)C2=O)cc1`, the TGI is 27.7 µM with KM20L2 colon, over 100 µM in the test with HOP-18 NSCLC, 30 µM in the test with MDA-MB-435 and 36.7 µM in the test on MDA-MB-231 breast.
On to `COc1cc2c(NCCCCCCO[N+](=O)[O-])ncnc2c(OC)c1OC`, for which the TGI was 56.4 µM in the test on MDA-N, 42.3 µM with MDA-MB-435 and 38 µM in the test with MDA-MB-231 breast.
As for `COc1ccc(CNC(=O)COc2ccc(/C=N/Nc3nc4ccccc4s3)cc2)cc1`, in the test on MDA-MB-435, the GI50 is 3.47 µM and the TGI is over 100 µM. In the test with MDA-MB-231 breast, the GI50 was 1.86 µM and the TGI came out at 4.45 µM.
Take `CC1=C(CCCOC(=O)NCCCl)C2=C(C)C3(CC3)[C@@](C)(O)C(=O)C2=C1`: the results for the GI50 in the test on MDA-MB-435 and in the test on MDA-MB-231 breast were 5.07 µM and 2.56 µM, respectively. The TGI with MDA-MB-435 turned out to be 99.4 µM; in the test on MDA-MB-231 breast, 8.35 µM.
Regarding `N#Cc1cnn2ccn(C3OC(COC(=O)c4ccccc4)C(OC(=O)c4ccccc4)C3OC(=O)c3ccccc3)c12` (stereo not drawn), the TGI in the test on MDA-N, in the test with MDA-MB-435 and in the test with MDA-MB-231 breast was over 21.5 µM each time.
As for `C[C@]12CCC(=O)C=C1CC[C@@H]1C2CC[C@]2(C)NC(=O)C(C#N)CC12` (stereo partly drawn), the TGI in the test on XF 498 CNS and with KM20L2 colon was over 100 µM throughout.
Regarding `OC(c1cccc(C(F)(F)F)c1)c1cnccc1NC1CCCCCC1` (stereo not drawn), the values for the GI50 in the test on MDA-MB-435 and in the test on MDA-MB-231 breast were 1.66 µM and 1.64 µM, respectively. The TGI in the test on MDA-MB-435 turned out to be 3.13 µM; in the test with MDA-MB-231 breast, 3.22 µM.
`N#Cc1c(O)c2c(c(O)c1C#N)C(=O)c1ccccc1C2=O`: in the test on MDA-MB-231 breast, the GI50 was 2.01 µM and the TGI is 9.55 µM.
Consider `CN=C1NC(=O)/C(=C/c2ccc3ncccc3c2)S1`, for which, in the test on MDA-MB-435, the GI50 was 4.06 µM and the TGI was over 25 µM. In the test on MDA-MB-231 breast, the GI50 is 18.5 µM and the TGI is over 25 µM.
For `c1ccc(-c2nnc(-c3nn(-c4ccccc4)c4nc5ccccc5nc34)o2)cc1`, the TGI is 61 µM with XF 498 CNS, over 100 µM with KM20L2 colon and over 100 µM in the test on HOP-18 NSCLC.
For `O=C(O)/C=C/C(=O)Nc1ncn[nH]1`, the TGI in the test with MDA-N, in the test on MDA-MB-435 and in the test with MDA-MB-231 breast was over 100 µM each time.
Regarding `O=[N+]([O-])c1ccc(NSc2ccccc2)cc1`, the TGI is 95.3 µM in the test with XF 498 CNS, over 100 µM in the test with KM20L2 colon and over 100 µM in the test on HOP-18 NSCLC.
As to `COc1ccc(N=Cc2cc(OC)c(OC)c(OC)c2)cc1`, the TGI in the test with XF 498 CNS, with KM20L2 colon and in the test with HOP-18 NSCLC was over 100 µM each time.
In the case of `COc1cc([C@@H]2c3cc4c(cc3[C@@H](NC(=O)c3cccc([N+](=O)[O-])c3)C3COC(=O)[C@@H]32)OCO4)cc(OC)c1O` (stereo partly drawn), the TGI with RXF-631 renal was 18.8 µM; with KM20L2 colon, over 57.7 µM.
With `CCCNC(=O)OCc1c(COC(=O)NCCC)c(-c2ccc(Cl)c(Cl)c2)n2c1CCC2`, the results for the TGI with MDA-MB-435 and in the test on MDA-MB-231 breast were 29.8 µM and 21.9 µM, respectively.
As for `O=C1/C(=C/c2ccccc2)CN(C(=O)Oc2ccc(Cl)cc2)C/C1=C\c1ccccc1`, the TGI with XF 498 CNS was determined as 5.71 µM; in the test with KM20L2 colon, 8.28 µM; in the test on HOP-18 NSCLC it was 36.6 µM.
For `COC(=O)[C@@H](C)C[C@H](Cc1ccccc1)NC(=O)c1nc([C@@H](C[C@H](C(C)C)N(C)C(=O)[C@@H](NC(=O)[C@H]2CCCN2C)C(C)C)OC(C)=O)sc1C`, the results for the GI50 in the test with MDA-MB-435 and with MDA-MB-231 breast were under 0.0025 µM and 0.00613 µM, respectively. Besides, the TGI in the test on MDA-MB-435 was under 0.0025 µM; in the test on MDA-MB-231 breast, 4.64 µM.
Take `O=C1NC(=O)C2C(=O)NC(=O)C1C2(c1ccccc1)c1ccc(Cl)cc1` (stereo not drawn): the TGI in the test on XF 498 CNS and with KM20L2 colon was over 100 µM throughout.
As to `ClCc1ccccc1CSc1ncnc2nc[nH]c12`, in the test with MDA-MB-435, the GI50 is over 60 µM and the TGI is over 60 µM. In addition, in the test on MDA-MB-231 breast, the GI50 was over 60 µM and the TGI is over 60 µM.
As to `CC1=C2[C@@H](CC1)[C@]1(C)O[C@@](C(C)C)(C[C@H]1OC(=O)[C@H](C)O)[C@H]2OC(=O)/C=C/c1ccccc1`, the GI50 was 15.5 µM in the test with MDA-MB-435 and 15.3 µM with MDA-MB-231 breast. Moreover, the TGI in the test with MDA-MB-435 was found to be 30.9 µM; with MDA-MB-231 breast, 36.4 µM.
`CN(C)c1ccc2c(c1)oc(=O)c1ccccc12`: the TGI in the test with MDA-N is 26.7 µM; with MDA-MB-435, 23.1 µM; in the test on MDA-MB-231 breast, 34.4 µM.
On to `O=C(O)c1cc(S(=O)(=O)N=NC=C2c3ccccc3N(O)c3ccccc32)ccc1O`, for which the TGI came to 63.6 µM with KM20L2 colon and 85.4 µM in the test with HOP-18 NSCLC.
Regarding `O=c1[nH]c(=O)n(C2CC(O)C(CO)O2)cc1C#Cc1c(F)c(F)c(F)c(F)c1F` (stereo not drawn), the TGI in the test with KM20L2 colon was over 100 µM.
Turning to `O=C(O)Cc1c[nH]c2ccc(F)cc12`, the TGI with MDA-N, in the test on MDA-MB-435 and in the test with MDA-MB-231 breast was over 100 µM in each case.
Regarding `COC(=O)C(CC(=O)c1cc2c(cc1I)OCO2)Cc1cc(OC)c(OC)c(OC)c1I` (stereo not drawn), the TGI in the test on XF 498 CNS, in the test with KM20L2 colon and with HOP-18 NSCLC was over 100 µM each time.
